Measured values from paper PMC6130518, “Investigation of the effective components of the flowers of Trollius chinensis from the perspectives of intestinal bacterial transformation and intestinal absorption” (Pharmaceutical Biology, 2017).
“Also recorded” adds a separate entry of the source. Where two headings read alike, the source gives them in different places.

Legend:
[1] = tested on: activated intestinal bacteria; assay: Intestinal bacterial transformation of AEOF; format: in vitro ADME, human; conditions: for After transformed by intestinal bacteria / Before transformed by intestinal bacteria: content in the extract; for transformation by intestinal bacteria (in words): in AEOF 15.0, 30.0, 60.0 mg/mL, up to 72 h, single person derived- or multiple people-derived intestinal bacteria
Procedure: Each 3 g of fresh feces from 3 healthy men and 3 healthy women of 23–25 years old was suspended in 200 mL of general anaerobic medium (GAM, including L-cystine hydrochloride, soluble starch, pepsin, tryptone, peptone, soy peptone, serum powder, yeast extract, beef extract, and beef liver extract powder purchased from Beijing Aoboxing Biotechnology Co., Ltd, Beijing, China) broth prepared as per a literature (Yang & Xu [2011]), respectively, and cultured in an anaerobic incubator (Shanghai Cimomedical Appliance Co., Ltd., Shanghai, China) at 37 °C for 24 h (Tsuchihashi et al. [2009]). […] Each 100 μL of the activated intestinal bacteria from the 6 volunteers were added into 11.4 mL of GAM, mixed adequately, and incubated in the same conditions as previously to obtain the mixture of activated intestinal bacteria. About 0.4513, 0.9026, and 1.8052 g of AEOF were dissolved in 30 mL of GAM on a super clean bench (Beijing Great Wall Air Purification Co. Ltd., Beijing, China), respectively, to generate the experimental groups. Then, the triplicate GAM containing AEOF was divided into 24 screw-cap test tubes, and each screw-cap test tube had 3 mL of the GAM and 100 μL of the activated intestinal bacteria and the mixture of activated intestinal bacteria, respectively. They were incubated under the same condition, and the test tubes of each concentration in triplicate were removed from the anaerobic incubator at 0, 2, 4, 6, 12, 24, 48, and 72 h. About 100 μL of the bacterial suspension was replaced with GAM to obtain the control group. The GAM absent of the AEOF was used as the blank group. […] About 300 μL of the supernatant was collected, filtered through a 0.45 μm membrane filter, and stored at −20 °C before HPLC analysis.
The HPLC analysis was performed using a Waters 1500 series (Waters Business Operations, Milford, MA) equipped with a 1525 binary HPLC pump, an on-line degasser, a manual injector and a 2489 UV/Visible detector. […] The temperature was set at 35 °C and the UV detecting wavelengths were 254 and 365 nm. The mobile phase consisted of acetonitrile (HPLC grade, Fisher Co., Pittsburgh, PA) (A) and 1.0% acetic acid (Beijing Chemical Works, Beijing, China) in purified water (v/v) (B), and the gradient elution program was as follows: 5–10% A (0–5 min), 10–20% A (5–10 min), 20–25% A (10–22 min), 25–40% A (22–35 min), 40–50% A (35–40 min), and 50–5% A (40–42 min) at a flow rate of 1.0 mL/min. The volume injected was 5 μL.

[2] = previous study, cited from earlier work
[3] = Absorption experiment with everted gut sacs; conditions: Sprague-Dawley, rat
[4] = tested on: everted gut sacs (jejunum); assay: Absorption experiment with everted gut sacs; conditions: for transport percentage: Everted gut sacs, AP→BL; for After transported with everted gut sacs: intestinal bacterial transformed AEOF
[5] = Transport experiment with Caco-2 cell monolayers; conditions: human, Caco-2, Papp, Caco-2 cell monolayers; for Papp at 180 min, 10 mg/mL: extract 10 mg/mL; for Papp at 180 min, 20 mg/mL: extract 20 mg/mL; for Papp at 180 min, 30 mg/mL: extract 30 mg/mL
Procedure: (§1) The Caco-2 cells were cultured in the culture medium consisting of Dulbecco’s Modified Eagle Medium (DMEM, Gibco Inc., Grand Island, CA)-fetal bovine serum (FBS, Gibco Inc., Grand Island, CA)-nonessential amino acids (NEAA, Corning Costar, Cambridge, MA)-‘penicillin-streptomycin’ (Corning Costar, Cambridge, MA) (100:10:1:1, v/v/v/v) in 25 cm^2 flasks, which were incubated in 5% CO2 and constant temperature (37 °C) and humidity in the incubator. The culture medium was replaced every 2 or 3 days, and the cells were split 1:2 or 1:3 to conduct passage when they reached 80% confluence.
(§2) About 1.5 mL of the culture medium was added into the basal (BL) side of each well of the 12-well Transwell plates (insert diameter 12 mm, pore size 3.0 μm, membrane growth area 1.12 cm^2, Corning Costar, Cambridge, MA), and 0.5 mL of the Caco-2 cell suspension at the density of 2.0 × 10^5 cells/mL was seeded into the apical (AP) side of each insert. The cells were incubated in 5% CO2 and constant temperature (37 °C) and humidity in the incubator. The culture medium in both AP and BL sides was replaced every other day in the first week, then that in AP side was replaced every day and that in BL side was replaced every other day. The cells would differentiate and form a confluent monolayer. The integrity and viability of the cell monolayers were evaluated by measuring transepithelial electrical resistance (TEER) values in the culture medium at 37 °C using a Millicell®-ERS system (Millipore Corp., Bedford, MA), and only the inserts with the TEER above 600 Ω/cm^2 on day 21 were selected to perform the transport experiment.
(§3) About 200 μL of the solution in the receiving chambers was collected at 30, 60, 90, 120, 150, and 180 min, respectively, and then the same volume of HBSS was added. All samples were stored at −20 °C and filtered through a 0.45 μm membrane filter for HPLC analysis.
(§4) The HPLC conditions used for the analysis of the intestinal bacterial transformed AEOF before and after transport experiment was the same as above.
(§5) The transport percentage (%) was calculated using the formula transport percentage (%) = dQ/(C0 × V) × 100, wherein, V (mL) represented the volume of the donor compartment.

Caco-2 cell monolayers = assay: Transport experiment with Caco-2 cell monolayers; conditions: for transport percentage: Caco-2 cell monolayers; for After transported with Caco-2 cell monolayers: intestinal bacterial transformed AEOF
Procedure: as §1, §2, §3, §4, §5

[6] = first of three lines per compound (lowest extract concentration)
[7] = first of three lines per compound (lowest extract concentration; AEOF 15, 30, 60 mg/mL)
[8] = second of three lines per compound (middle extract concentration, not given)
[9] = third of three lines per compound (highest extract concentration, not given)
[10] = ref Liu et al. [2014], Wu et al. [2014]
[11] = first of three lines per compound (lowest concentration; 10, 20, 30 mg/mL)
[12] = second of three lines per compound (middle concentration, not given)
[13] = third of three lines per compound (highest concentration, not given)

| Structure (SMILES) | After transformed by intestinal bacteria [1, 6] | Before transformed by intestinal bacteria [1, 7] | After transformed by intestinal bacteria [1, 8] | Before transformed by intestinal bacteria [1, 8] | After transformed by intestinal bacteria [1, 9] | Before transformed by intestinal bacteria [1, 9] | transformation by intestinal bacteria (in words) [1] | Papp at 180 min, 10 mg/mL [3] | Papp at 180 min, 20 mg/mL [3] | Papp at 180 min, 30 mg/mL [3] | transport percentage ([4]; extract 10 mg/mL) | transport percentage ([4]; extract 20 mg/mL) | transport percentage ([4]; extract 30 mg/mL) | After transported with everted gut sacs [4, 11] | After transported with everted gut sacs [4, 12] | After transported with everted gut sacs [4, 13] | Papp at 180 min, 10 mg/mL ([5]; AP→BL) | Papp at 180 min, 10 mg/mL ([5]; BL→AP) | Papp at 180 min, 20 mg/mL ([5]; AP→BL) | Papp at 180 min, 20 mg/mL ([5]; BL→AP) | further results |
| --- | --- | --- | --- | --- | --- | --- | --- | --- | --- | --- | --- | --- | --- | --- | --- | --- | --- | --- | --- | --- | --- |
| COc1cc(C(=O)O)cc(CC=C(C)C)c1O [proglobeflowery acid] | 32.40 µg/mL | 2.55 µg/mL | 67.09 µg/mL | 4.78 µg/mL | 134.85 µg/mL | 6.67 µg/mL | not transformed; also recorded: not changed | 450 ± 11 ×10⁻⁶ cm/s | 534 ± 14 ×10⁻⁶ cm/s | 586 ± 8 ×10⁻⁶ cm/s | 9.60% | 10.58% | 11.61% | 1.95 µg/mL | 4.95 µg/mL | 7.74 µg/mL | 105 ± 4 ×10⁻⁶ cm/s | 223 ± 16 ×10⁻⁶ cm/s | 123 ± 26 ×10⁻⁶ cm/s | 142 ± 5 ×10⁻⁶ cm/s | absorption mechanism [2, 10]: mainly through passive diffusion; Papp at 180 min, 30 mg/mL ([5]; AP→BL): 181 ± 22 ×10⁻⁶ cm/s; Papp at 180 min, 30 mg/mL ([5]; BL→AP): 105 ± 4 ×10⁻⁶ cm/s; transport percentage (Caco-2 cell monolayers; extract 10 mg/mL, AP→BL): 127.39%; transport percentage (Caco-2 cell monolayers; extract 10 mg/mL, BL→AP): 89.93%; transport percentage (Caco-2 cell monolayers; extract 20 mg/mL, AP→BL): 148.57%; transport percentage (Caco-2 cell monolayers; extract 20 mg/mL, BL→AP): 57.32%; transport percentage (Caco-2 cell monolayers; extract 30 mg/mL, AP→BL): 219.09%; transport percentage (Caco-2 cell monolayers; extract 30 mg/mL, BL→AP): 42.47%; After transported with Caco-2 cell monolayers (Caco-2 cell monolayers; [11]): 11.11 µg/mL; After transported with Caco-2 cell monolayers (Caco-2 cell monolayers; [12]): 17.18 µg/mL; After transported with Caco-2 cell monolayers (Caco-2 cell monolayers; [13]): 23.46 µg/mL |
| O=c1cc(-c2ccc(O)cc2)oc2c([C@@H]3O[C@H](CO)[C@@H](O)[C@H](O)[C@H]3O)c(O)cc(O)c12 [vitexin] | 3.10 µg/mL | 2.98 µg/mL | 5.70 µg/mL | 5.11 µg/mL | 11.19 µg/mL | 11.04 µg/mL | not transformed; also recorded: not changed | 26 ± 2.8 ×10⁻⁶ cm/s | 15.5 ± 1.1 ×10⁻⁶ cm/s | 38.1 ± 5 ×10⁻⁶ cm/s | 5.55% | 2.94% | 7.55% | 0.11 µg/mL | 0.14 µg/mL | 0.50 µg/mL | 39.6 ± 0.5 ×10⁻⁶ cm/s | 28.3 ± 2.7 ×10⁻⁶ cm/s | 13.6 ± 1.5 ×10⁻⁶ cm/s | 16.4 ± 0.5 ×10⁻⁶ cm/s | absorption mechanism ([2]; ref Liu et al. [2015]): transporter mediated efflux in addition to passive diffusion; Papp at 180 min, 30 mg/mL ([5]; AP→BL): 33.8 ± 2.8 ×10⁻⁶ cm/s; Papp at 180 min, 30 mg/mL ([5]; BL→AP): 21.6 ± 0.5 ×10⁻⁶ cm/s; transport percentage (Caco-2 cell monolayers; extract 10 mg/mL, AP→BL): 47.97%; transport percentage (Caco-2 cell monolayers; extract 10 mg/mL, BL→AP): 11.43%; transport percentage (Caco-2 cell monolayers; extract 20 mg/mL, AP→BL): 16.41%; transport percentage (Caco-2 cell monolayers; extract 20 mg/mL, BL→AP): 6.61%; transport percentage (Caco-2 cell monolayers; extract 30 mg/mL, AP→BL): 40.90%; transport percentage (Caco-2 cell monolayers; extract 30 mg/mL, BL→AP): 8.74%; After transported with Caco-2 cell monolayers (Caco-2 cell monolayers; [11]): 0.19 µg/mL; After transported with Caco-2 cell monolayers (Caco-2 cell monolayers; [12]): 0.23 µg/mL; After transported with Caco-2 cell monolayers (Caco-2 cell monolayers; [13]): 0.39 µg/mL |
| O=c1cc(-c2ccc(O)c(O)c2)oc2c([C@@H]3O[C@H](CO)[C@@H](O)[C@H](O)[C@H]3O)c(O)cc(O)c12 [orientin] | 11.83 µg/mL | 10.27 µg/mL | 20.38 µg/mL | 20.33 µg/mL | 43.42 µg/mL | 43.87 µg/mL | not transformed; also recorded: not changed | 21.9 ± 2.4 ×10⁻⁶ cm/s | 18.5 ± 0.1 ×10⁻⁶ cm/s | 34 ± 3.4 ×10⁻⁶ cm/s | 4.67% | 3.50% | 6.75% | 0.32 µg/mL | 0.49 µg/mL | 1.04 µg/mL | 25.3 ± 0.3 ×10⁻⁶ cm/s | 19.2 ± 1.4 ×10⁻⁶ cm/s | 13.5 ± 0.2 ×10⁻⁶ cm/s | 11.8 ± 0.2 ×10⁻⁶ cm/s | absorption mechanism ([2]; ref Liu et al. [2015]): transporter mediated efflux in addition to passive diffusion; Papp at 180 min, 30 mg/mL ([5]; AP→BL): 19.5 ± 1.4 ×10⁻⁶ cm/s; Papp at 180 min, 30 mg/mL ([5]; BL→AP): 16.3 ± 0.6 ×10⁻⁶ cm/s; transport percentage (Caco-2 cell monolayers; extract 10 mg/mL, AP→BL): 30.53%; transport percentage (Caco-2 cell monolayers; extract 10 mg/mL, BL→AP): 7.73%; transport percentage (Caco-2 cell monolayers; extract 20 mg/mL, AP→BL): 16.39%; transport percentage (Caco-2 cell monolayers; extract 20 mg/mL, BL→AP): 4.76%; transport percentage (Caco-2 cell monolayers; extract 30 mg/mL, AP→BL): 23.54%; transport percentage (Caco-2 cell monolayers; extract 30 mg/mL, BL→AP): 6.56%; After transported with Caco-2 cell monolayers (Caco-2 cell monolayers; [11]): 0.33 µg/mL; After transported with Caco-2 cell monolayers (Caco-2 cell monolayers; [12]): 0.35 µg/mL; After transported with Caco-2 cell monolayers (Caco-2 cell monolayers; [13]): 0.82 µg/mL |
| COc1ccc(C(=O)O)cc1OC [veratric acid] | 3.22 µg/mL | 2.81 µg/mL | 7.44 µg/mL | 6.10 µg/mL | 12.78 µg/mL | 13.39 µg/mL | not transformed; also recorded: not changed | 127 ± 4 ×10⁻⁶ cm/s | 111 ± 7 ×10⁻⁶ cm/s | 142 ± 3 ×10⁻⁶ cm/s | 27.04% | 21.02% | 28.12% | 0.59 µg/mL | 1.64 µg/mL | 2.02 µg/mL | 104 ± 5 ×10⁻⁶ cm/s | 236 ± 5 ×10⁻⁶ cm/s | 105 ± 15 ×10⁻⁶ cm/s | 210 ± 4 ×10⁻⁶ cm/s | absorption mechanism [2, 10]: mainly through passive diffusion; Papp at 180 min, 30 mg/mL ([5]; AP→BL): 109 ± 4 ×10⁻⁶ cm/s; Papp at 180 min, 30 mg/mL ([5]; BL→AP): 199 ± 4 ×10⁻⁶ cm/s; transport percentage (Caco-2 cell monolayers; extract 10 mg/mL, AP→BL): 109.67%; transport percentage (Caco-2 cell monolayers; extract 10 mg/mL, BL→AP): 95.04%; transport percentage (Caco-2 cell monolayers; extract 20 mg/mL, AP→BL): 127.58%; transport percentage (Caco-2 cell monolayers; extract 20 mg/mL, BL→AP): 84.75%; transport percentage (Caco-2 cell monolayers; extract 30 mg/mL, AP→BL): 131.58%; transport percentage (Caco-2 cell monolayers; extract 30 mg/mL, BL→AP): 80.33%; After transported with Caco-2 cell monolayers (Caco-2 cell monolayers; [11]): 0.92 µg/mL; After transported with Caco-2 cell monolayers (Caco-2 cell monolayers; [12]): 1.62 µg/mL; After transported with Caco-2 cell monolayers (Caco-2 cell monolayers; [13]): 2.79 µg/mL |
